Counter-ions that a name gives are not always drawn.
Molecular target: T1, human full length HSD11 β 1 (Homo sapiens, UniProt P28845)
T1 construct: transient expression of human full length HSD11 β 1 expression vector; host or cells: CHO cells (transient transfection)
Assay: In Vitro HSD11β1 Inhibition Assay
Assay type: cell-based
Details: CHO cells transiently expressing human HSD11β1; 200 nM cortisone+500 uM NADPH overnight; cortisone to cortisol by LC/MS-MS; read-out: 11βHSD1 (IC50)
Description: In Vitro HSD11β1 Inhibition Assay:
CHO cells were maintained in Dulbecco's modified Eagle's medium/nutrient mixture F-12 containing 5% fetal bovine serum (v/v) and 2 mM glutamine. Cells were cultured at 37° C. with 5% CO2. For transient expression of human full length HSD11 β 1 expression vector (OriGene Technologies), cells were seeded at a density of 2×10^5 cells/well in a 6-well plate. Transfection was done using Turbofectin8 reagent (OriGene Technologies), according to the protocol provided with the reagent. After 24 hours post-transfection, cells were trypsinized and pooled together before they were re-seeding to 96-well plate at a density of 40000 cells/well. 24 hours after re-seeding, cells were incubated with 200 nM cortisone+500 uM NADPH (or along with small molecule inhibitors) overnight. The enzymatic activity or inhibition of enzyme activity was measured by estimating the conversion of cortisone to cortisol by LC/MS-MS method. The IC50 in nM was calculated from an 8 point log scale of concentration versus inhibition.

T1 sequence (P28845 whole entry): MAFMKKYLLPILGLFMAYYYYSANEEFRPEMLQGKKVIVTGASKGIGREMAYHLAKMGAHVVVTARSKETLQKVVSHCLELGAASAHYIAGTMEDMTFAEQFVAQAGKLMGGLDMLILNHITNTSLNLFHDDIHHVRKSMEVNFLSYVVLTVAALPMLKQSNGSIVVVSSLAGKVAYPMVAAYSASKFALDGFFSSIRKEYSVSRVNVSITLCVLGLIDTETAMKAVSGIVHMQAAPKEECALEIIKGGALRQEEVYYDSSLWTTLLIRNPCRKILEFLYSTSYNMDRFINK

Row | Structure (SMILES) | IC50
1 | CC(CC(=O)N1CCC(O)C2CCCCC21)c1c[nH]c2ccccc12 (centres unmarked) [Example 106, 1-(4-hydroxyoctahydroquinolin-1(2H)-yl)-3-(1H-indol-3-yl)butan-1-one] | > 250 nM
2 | CC(CC(=O)N1CCCC2CCCCC21)c1c[nH]c2ncccc12 (single isomer, unassigned) [Example 144, 1-(octahydroquinolin-1(2H)-yl)-3-(1H-pyrrolo[2,3-b]pyridin-3-yl)butan-1-one] | > 250 nM
3 | Cc1cccc2c1c(CCC(=O)N1CCOC3CCCCC31)cn2C (centres unmarked) [Compound 60, 3-(1,4-dimethyl-1H-indol-3-yl)-1-(octahydro-4H-1,4-benzoxazin-4-yl)propan-1-one] | < 100 nM
4 | CC12CCCCC1N(C(=O)CCn1nnc3ccccc31)CCC2 (centres unmarked) [Example 90, 3-(1H-benzotriazol-1-yl)-1-(4a-methyloctahydroquinolin-1(2H)-yl)propan-1-one] | 100 to 150 nM
5 | CC(C)Oc1cccc2c1c(C(C)CC(=O)N1CCCC3C(C(=O)O)CCCC31)cn2C (centres unmarked) [Compound 208, 1-{3-[1-methyl-4-(propan-2-yloxy)-1H-indol-3-yl]butanoyl}decahydroquinoline-5-carboxylic acid] | 100 to 150 nM
6 | CC(CC(=O)N1CCOC2CCCCC21)c1c[nH]c2cccc(F)c12 (single isomer, unassigned) [Example 137, 3-(4-fluoro-1H-indol-3-yl)-1-(octahydro-4H-1,4-benzoxazin-4-yl)butan-1-one] | 100 to 150 nM
7 | CC(CC(=O)N1CCCC2(C)CCCCC12)c1cn(C)c2ccccc12 (centres unmarked) [Example 113, 3-(1-methyl-1H-Indol-3-yl)-1-(4a-methyloctahydroquinolin-1(2H)-yl)butan-1-one] | > 250 nM
8 | CC(CC(=O)N1CCC(C(=O)O)C2CCCCC21)c1c[nH]c2cccc(C3CC3)c12 (centres unmarked) [Compound 194, 1-[3-(4-cyclopropyl-1H-indol-3-yl)butanoyl]decahydroquinoline-4-carboxylic acid] | > 250 nM
9 | O=C(O)C1CC2CCCCC2N(C(=O)CC(c2ccccc2)c2c[nH]c3cccc(F)c23)C1 (centres unmarked) [Example 176, 1-[3-(4-fluoro-1H-indol-3-yl)-3-phenylpropanoyl]decahydroquinoline-3-carboxylic acid] | 150 to 200 nM
10 | CC(C)C(CC(=O)N1CCC(C(=O)O)C2CCCCC21)c1c[nH]c2ccccc12 (centres unmarked) [Example 107, 1-[3-(1H-indol-3-yl)-4-methylpentanoyl]decahydroquinoline-4-carboxylic acid sodium salt] | > 250 nM
11 | Cn1nc(CCC(=O)N2CCCC3CCCCC32)c2ccccc21 (centres unmarked) [Example 89, 3-(1-methyl-1H-indazol-3-yl)-1-(octahydroquinolin-1(2H)-yl)propan-1-one] | 150 to 200 nM
12 | O=C(CCc1c[nH]c2ccc(O)cc12)N1CCCC2CCCCC21 (centres unmarked) [Compound 15, 3-(5-hydroxy-1H-indol-3-yl)-1-(octahydroquinolin-1(2H)-yl)propan-1-one] | 100 to 150 nM
13 | O=C(O)C1CCN(C(=O)CC(c2ccccc2)n2nnc3ccccc32)C2CCCCC12 (single isomer, unassigned) [Example 182, 1-[3-(1H-benzotriazol-1-yl)-3-phenylpropanoyl]decahydroquinoline-4-carboxylic acid] | > 250 nM
14 | O=C(CCc1cc2ccccc2[nH]1)N1CCCC2CCCCC21 (centres unmarked) [Compound 14, 3-(1H-indol-2-yl)-1-(octahydroquinolin-1(2H)-yl)propan-1-one] | > 250 nM
15 | Cc1cccc2c1c(CCC(=O)N1CCCC3CCCCC31)cn2C (centres unmarked) [Compound 27, 3-(1,4-dimethyl-1H-indol-3-yl)-1-(octahydroquinolin-1(2H)-yl)propan-1-one] | < 100 nM
16 | CC(CC(=O)N1CCC(=O)C2CCCCC21)c1c[nH]c2ccccc12 (centres unmarked) [Example 103, 1-[3-(1H-indol-3-yl)butanoyl]octahydroquinolin-4(1H)-one] | > 250 nM
17 | O=C(O)Cn1cc(CCC(=O)N2CCCC3CCCCC32)c2ccccc21 (centres unmarked) [Compound 46, {3-[3-(octahydroquinolin-1(2H)-yl)-3-oxopropyl]-1H-indol-1-yl}acetic acid] | > 250 nM
18 | CC(C)C(CC(=O)N1CCCC2CCCCC21)c1c[nH]c2ccccc12 (single isomer, unassigned) [Example 118, 3-(1H-indol-3-yl)-4-methyl-1-(octahydroquinolin-1(2H)-yl)pentan-1-one] | < 100 nM
19 | O=C(CSc1nc2ccccc2s1)N1CCCC2CCCCC21 (centres unmarked) [Compound 73, 2-(1,3-benzothiazol-2-ylsulfanyl)-1-(octahydroquinolin-1(2H)-yl)ethanone] | > 250 nM

Row | Structure (SMILES) | IC50
20 | CC(CC(=O)N1CCCC2C1CCCC2(C)C(=O)O)c1c[nH]c2cccc(C3CC3)c12 (centres unmarked) [Compound 237, 1-[3-(4-cyclopropyl-1H-indol-3-yl)butanoyl]-5-methyldecahydroquinoline-5-carboxylic acid] | 150 to 200 nM
21 | CC(CC(=O)N1CCCC2CC(C(=O)O)CCC21)c1c[nH]c2cccc(C3CC3)c12 (centres unmarked) [Compound 191, 1-[3-(4-cyclopropyl-1H-Indol-3-yl)butanoyl]decahydroquinoline-6-carboxylic acid] | 100 to 150 nM
22 | COC(=O)C1CCN(C(=O)CCc2nc3ccccc3s2)C2CCCCC12 (centres unmarked) [Example 77, methyl 1-[3-(1,3-benzothiazol-2-yl)propanoyl]decahydroquinoline-4-carboxylate] | > 250 nM
23 | CC(CC(=O)N1C(C)CCC2C(C(=O)O)CCCC21)c1c[nH]c2cccc(-c3cccs3)c12 (centres unmarked) [Compound 233, 2-methyl-1-{3-[4-(thiophen-2-yl)-1H-indol-3-yl]butanoyl}decahydroquinoline-5-carboxylic acid] | > 250 nM
24 | O=C(O)C1CCN(C(=O)CC(c2cccs2)c2c[nH]c3cccc(F)c23)C2CCCCC12 (centres unmarked) [Example 156, 1-[3-(4-fluoro-1H-indol-3-yl)-3-(thiophen-2-yl)propanoyl]decahydroquinoline-4-carboxylic acid] | < 100 nM
25 | O=C(O)C1CCN(C(=O)CC(c2ccccc2)c2c[nH]c3cccc(Cl)c23)C2CCCCC12 (centres unmarked) [Example 155, 1-[3-(4-chloro-1H-indol-3-yl)-3-phenylpropanoyl]decahydroquinoline-4-carboxylic acid] | > 250 nM
26 | CC12CCCCC1N(C(=O)CCc1c[nH]c3ccccc13)CCC2 (single isomer, unassigned) [Compound 55, 3-(1H-indol-3-yl)-1-(4a-methyloctahydroquinolin-1(2H)-yl)propan-1-one] | < 100 nM
27 | CC1(O)CCN(C(=O)CCc2c[nH]c3ccccc23)C2CCCCC21 (centres unmarked) [Compound 34, 1-(4-hydroxy-4-methyloctahydroquinolin-1(2H)-yl)-3-(1H-indol-3-yl)propan-1-one] | > 250 nM
28 | CC(CC(=O)N1CCCC2C(C(=O)O)CCCC21)c1cn(C)c2cccc(Cl)c12 (centres unmarked) [Compound 209, 1-[3-(4-chloro-1-methyl-1H-indol-3-yl)butanoyl]decahydroquinoline-5-carboxylic acid] | 150 to 200 nM
29 | O=C(O)C1CCN(C(=O)CC(c2ccccc2)c2c[nH]c3cccc(F)c23)C2CCCCC12 (single isomer, unassigned) [Example 162, 1-[3-(4-fluoro-1H-indol-3-yl)-3-phenylpropanoyl]decahydroquinoline-4-carboxylic acid] | > 250 nM
30 | O=C(CCCc1c[nH]c2ccccc12)N1CCCC2CCCCC21 (centres unmarked) [Compound 11, 4-(1H-indol-3-yl)-1-(octahydroquinolin-1(2H)-yl)butan-1-one] | 100 to 150 nM
31 | CC(C)C(CC(=O)N1CCOC2CCCCC21)c1c[nH]c2cccc(F)c12 (centres unmarked) [Example 135, 3-(4-fluoro-1H-indol-3-yl)-4-methyl-1-(octahydro-4H-1,4-benzoxazin-4-yl)pentan-1-one] | > 250 nM
32 | CC(CC(=O)N1CCCC2CCCCC21)c1c[nH]c2ccccc12 (single isomer, unassigned) [Example 125, 3-(1H-indol-3-yl)-1-(octahydroquinolin-1(2H)-yl)butan-1-one] | < 100 nM
33 | CC(CC(=O)N1CCCC2C(C(=O)O)CCCC21)c1c[nH]c2cccc(-c3ccc(F)cc3)c12 (centres unmarked) [Compound 254, 1-{3-[4-(4-fluorophenyl)-1H-indol-3-yl]butanoyl}decahydroquinoline-5-carboxylic acid] | > 250 nM
34 | CC(CC(=O)N1CCCC2C(C(=O)O)CCCC21)c1c[nH]c2cccc(-c3ccc(F)cc3)c12 (centres unmarked) [Compound 253, 1-{3-[4-(4-fluorophenyl)-1H-indol-3-yl]butanoyl}decahydroquinoline-5-carboxylic acid] | < 100 nM
35 | CCn1cc(C(C)CC(=O)N2CCCC3C(C(=O)O)CCCC32)c2c(C3CC3)cccc21 (centres unmarked) [Compound 210, 1-[3-(4-cyclopropyl-1-ethyl-1H-indol-3-yl)butanoyl]decahydroquinoline-5-carboxylic acid] | 100 to 150 nM
36 | CC1CCC2CCCCC2N1C(=O)CCc1c[nH]c2cc(F)ccc12 (centres unmarked) [Compound 40, 3-(6-fluoro-1H-indol-3-yl)-1-(2-methyloctahydroquinolin-1(2H)-yl)propan-1-one] | > 250 nM
37 | Cn1cc(CCC(=O)N2CCO[C@@H]3CCCC[C@H]32)c2ccccc21 (relative stereo) [Compound 63, 3-(1-methyl-1H-indol-3-yl)-1-[(trans-4a,8a)-octahydro-4H-1,4-benzoxazin-4-yl]propan-1-one] | > 250 nM
38 | Cn1cc(CCC(=O)N2CCCC3CCCCC32)c2cc(O)ccc21 (centres unmarked) [Compound 24, 3-(5-hydroxy-1-methyl-1H-indol-3-yl)-1-(octahydroquinolin-1(2H)-yl)propan-1-one] | > 250 nM

— patent publication US9453014B2, “Cyclic amide derivatives as inhibitors of 11-β-hydroxysteroid dehydrogenase and uses thereof” (CONNEXIOS LIFE SCIENCES PVT. LTD., priority 2011, dated 2016)
